{"source": "patent US20240269150A1", "about": "“WOUND TREATMENT COMPOSITION” (CS MEDICA A/S, priority 2021, published 2024)", "assay": "Comparison of compositions formulated with different crystalline CBDs", "format": "in vivo", "details": "compositions per Example 1 (formulation A or B) differing only in the crystalline CBD used", "source_text": "In some embodiments, CBD of crystal structure A (or capable of forming needle-like crystals) is at least 1.2, 1.5, 2, 3, 4, 5, 7.5, 10, 15 or 20 times more “potent” on a weight/weight basis than CBD of crystal structure B (or capable of forming cluster/bunch-like crystals). Often, the “A-type” CBD is at least 2.5, 5, 7.5, or 10 times more “potent” on a weight/weight basis than “B-type” CBD. The “potency” of “type A” CBD can e.g. be determined in measuring the time needed for wound and/or soar healing using essentially identical compositions with the exception of the type of CBD used. Alternatively, the potency can be determined in the quantity of CBD needed to provide the same effect, such as wound and/or sore healing time.\nTwo compositions are prepared according to Example 1, e.g. formulation A or B, the only difference being that the crystalline CBD used in the formulation is either of type A (needle-like crystals; FIG. 1) or type B (bunch/cluster-like; FIG. 2).\nType A crystalline CBD is sourced from Enecta, while type B CBD is sourced from Pharma Hemp.", "data": [{"smiles": "C=C(C)[C@@H]1CCC(C)=C[C@H]1c1c(O)cc(CCCCC)cc1O", "note": "[type A CBD, cannabidiol]", "values": [{"measurement": "Activity / potency of type A CBD relative to type B CBD", "result": "significantly more active than type B CBD"}, {"measurement": "Activity / potency of type A CBD relative to type B CBD", "setting": "listed as CBD with a needle-like crystal structure", "result": "significantly more potent"}]}]}
